Assay results published in paper PMC12686243, “Synthesis and preclinical evaluation of FAP-targeting radiotracers for PET and optical imaging” (EJNMMI Radiopharmacy and Chemistry, 2025).

Key:
[1] = molecular target: T1, hFAPα, recombinant protein (Homo sapiens, UniProt Q12884); assay: fluorometric enzyme inhibition assay for FAP; assay type: biochemical; details: Morrison equation for tight binding inhibitors; substrate Ala-Pro-AMC; mean ± SD
T1 construct: purchased
T1 sequence (Q12884 1-760): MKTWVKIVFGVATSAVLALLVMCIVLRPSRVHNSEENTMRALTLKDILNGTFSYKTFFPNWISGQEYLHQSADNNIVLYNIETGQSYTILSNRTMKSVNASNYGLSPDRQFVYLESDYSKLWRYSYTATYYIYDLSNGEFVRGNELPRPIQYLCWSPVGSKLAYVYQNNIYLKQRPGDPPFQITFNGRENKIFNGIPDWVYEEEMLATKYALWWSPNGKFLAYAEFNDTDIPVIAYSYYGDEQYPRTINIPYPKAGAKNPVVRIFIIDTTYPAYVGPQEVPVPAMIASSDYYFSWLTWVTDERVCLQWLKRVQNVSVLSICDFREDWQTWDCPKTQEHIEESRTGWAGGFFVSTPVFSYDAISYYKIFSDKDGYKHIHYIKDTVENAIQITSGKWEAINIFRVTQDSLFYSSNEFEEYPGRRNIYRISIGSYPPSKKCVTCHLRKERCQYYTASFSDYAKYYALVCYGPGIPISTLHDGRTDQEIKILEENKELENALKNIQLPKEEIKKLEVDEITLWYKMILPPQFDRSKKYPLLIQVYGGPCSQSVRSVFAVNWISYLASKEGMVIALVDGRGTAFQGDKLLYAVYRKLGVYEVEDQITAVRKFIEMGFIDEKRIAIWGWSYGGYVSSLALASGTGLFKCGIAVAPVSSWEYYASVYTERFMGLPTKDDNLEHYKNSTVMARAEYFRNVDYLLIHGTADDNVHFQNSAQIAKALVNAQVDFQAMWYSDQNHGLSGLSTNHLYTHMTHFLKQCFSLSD
Protocol: Affinity towards FAP was tested using a commercially available fluorometric assay. At the day of the experiment, all tested compounds were diluted in assay buffer (DPP assay buffer, BPS Bioscience, San Diego, CA, USA,) in a 1:1 dilution series, resulting in eleven concentrations, ranging from 2000 nM to 1.950 nM, equal to 200 nM to 0.195 nM per well. The substrate Ala-Pro-AMC (BPS Bioscience, concentration per well: 5 μM, Km = 244 μM (Edosada et al. [2006])) was pipetted along with the inhibitor into a 96-well plate. Subsequently, the enzyme (hFAPα, recombinant protein) was dissolved in assay buffer and added to the wells. The final concentration of DMSO per well was 0.2%. The 96-well plate was immediately loaded into a multimode plate reader (Biotek Cytation 5, Agilent, Santa Clara, CA, USA). The fluorescence intensity for each well was measured over a time course of 30 min with measurement intervals of 15 s, an excitation wavelength of 360 ± 20 nm and an emission wavelength of 450 ± 20 nm. Data (relative fluorescence units, RFU) over the total measurement time was analyzed by linear regression. The slope of the resulting graphs was analyzed over the inhibitor concentration. The enzyme inhibition constant Ki was calculated using the Morrison equation for tight binding inhibitors (Williams and Morrison [1979]). […]

[2] = molecular target: T2, human recombinant dipeptidylpeptidase IV (Homo sapiens, UniProt P27487); assay: fluorometric enzyme inhibition assay for DPPIV; assay type: biochemical
T2 construct: purchased Cayman Chemical
Protocol: The affinity towards DPPIV was determined using a commercially available inhibitor screening assay kit (Cayman Chemical, USA). The assay was performed according to the manufacturer’s instructions, and the data was analyzed as described above.

WT-HT1080 cells = assay: fluorescence microscopy of cellular binding and uptake; assay type: cell-based, human; details: 1 µM, 37 °C, up to 4 h
Protocol: WT/hFAP-HT1080 cells were seeded in an 18-chamber slide with 10,000 cells/well and cultured overnight. The medium was discarded and replaced by medium containing 1 µM of NODAGA-FAP647. The cells were then further incubated at 37 °C and 5% CO2. The binding of the ligand was stopped at the indicated time points by discarding the media and washing the cells twice with ice-cold PBS. The cells were then quickly fixed with 4% PFA/2.5% saccharose in PBS at 20 °C for 20 min. Following the fixation, cells were incubated with a 1:200 dilution of WGA-CF488A (Biotium #29022–1) in PBS to stain the cell membranes. Finally, the cell nuclei were stained with Hoechst33258 (Sigma #94403) diluted 5 µg/ml in PBS for 30 min at 20 °C. Cells were visualized with the Fluoview 1000 confocal laser scanning microscope (Olympus) using a 100 × oil immersion objective. Three representative images were captured for each well.

[3] = tested on: hFAP-HT1080 and WT-HT1080 xenografts; assay: in vivo fluorescence imaging of xenograft-bearing mice; parameters: species or system nude mice
Excerpt: Female athymic NMRI-nude mice (Rj:NMRI-Foxn1nu, Janvier Labs, France or Charles River, Germany) between 8 and 20 weeks of age were used. Subsequently, the prepared cells (1.0–2.0 × 10^6 hFAP/WT-HT1080 per animal) were subcutaneously injected into the right and left thigh, respectively. Xenograft tissue for real-time binding experiments was derived from animals injected with both target-positive and negative cells, however only showing growth of one tumor entity. When approaching endpoints, mice were anesthetized and euthanized. The tumor was quickly removed, frozen in − 45 °C 2-methylbutane and stored in sealed tubes at − 80 °C.
Optical imaging was performed using a multimodal IVIS-CT (Perkin Elmer, USA). Compounds were injected [0.09 mg/kg (n = 1)/0.33 mg/kg (n = 3) for NODAGA-FAP647; 0.17 mg/kg (n = 3) for NODAGA-FAP800, diluted in 150 µL of sterile 0.9% NaCl solution] into the lateral tail vein, either directly or via catheter. Fluorescence imaging started ~ 2 min post injection for 2–3 h, with 1 min, 3–5 min and 10 min intervals, along with a white-light image. Additional scans were performed after 24 h and, if applicable, later. The fluorescence of the respective fluorophore was captured (NODAGA-FAP647: λEx/Em = 640/680 nm, NODAGA-FAP800: λEx/Em = 745/800 nm). Emitted fluorescence intensity was analyzed (Perkin Elmer, Living Image 4.7.4) in raw data images.

T2 sequence (P27487 whole entry): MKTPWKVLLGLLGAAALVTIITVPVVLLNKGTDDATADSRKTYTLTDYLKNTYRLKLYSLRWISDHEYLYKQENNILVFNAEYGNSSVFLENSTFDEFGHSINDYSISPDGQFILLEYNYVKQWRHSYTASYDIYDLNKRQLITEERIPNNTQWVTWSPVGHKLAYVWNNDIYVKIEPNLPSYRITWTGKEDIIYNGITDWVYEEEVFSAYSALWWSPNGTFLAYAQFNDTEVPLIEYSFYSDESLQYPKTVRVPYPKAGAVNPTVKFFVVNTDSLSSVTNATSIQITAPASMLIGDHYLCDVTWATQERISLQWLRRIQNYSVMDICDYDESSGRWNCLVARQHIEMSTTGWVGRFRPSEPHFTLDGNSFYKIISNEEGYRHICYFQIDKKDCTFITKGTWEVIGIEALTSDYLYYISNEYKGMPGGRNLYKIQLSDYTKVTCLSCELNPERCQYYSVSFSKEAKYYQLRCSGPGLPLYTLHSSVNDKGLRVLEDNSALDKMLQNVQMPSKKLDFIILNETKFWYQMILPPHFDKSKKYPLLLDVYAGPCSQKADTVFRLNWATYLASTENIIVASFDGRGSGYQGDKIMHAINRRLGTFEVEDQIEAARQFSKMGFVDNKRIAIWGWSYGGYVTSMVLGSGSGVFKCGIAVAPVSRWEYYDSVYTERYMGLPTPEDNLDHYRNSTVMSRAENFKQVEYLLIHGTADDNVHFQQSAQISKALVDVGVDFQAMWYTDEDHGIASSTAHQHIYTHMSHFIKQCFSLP

## CN(CCCN1CCN(C(=O)[C@H](CCCCNC(=O)CC[C@H](C(=O)O)N2CCN(CC(=O)O)CCN(CC(=O)O)CC2)NC(=O)CCOCCOCCOCCOCCNC(=O)CCCCCC2(C)C(/C=C/C=C/C=C3/N(CCCS(=O)(=O)O)c4ccc(S(=O)(=O)O)cc4C3(C)C)=[N+](CCCS(=O)(=O)O)c3ccc(S(=O)(=O)[O-])cc32)CC1)c1ccc2nccc(C(=O)NCC(=O)N3CC(F)(F)C[C@H]3C#N)c2c1 (stereo partly drawn) [NODAGA-FAP647]
[1]
  Ki: 0.237 ± 0.064 nM
[2]
  IC50: > 10 µM
WT-HT1080 cells
  binding or uptake in WT-HT1080 cells: did not show any binding or uptake
[3]; 120 min post injection
  ratio hFAP-HT1080/muscle fluorescence: 3.5
  ratio hFAP/WT-HT1080 tumor fluorescence: 2.5
[3]; 24 h post injection
  fluorescence in hFAP-HT1080 tumor higher than in WT-HT1080 tumor or muscle: roughly 60%
[3]; after 24 h post injection
  reduction of fluorescence signal in hFAP-HT1080 tumor: 59%
[3]; over the imaging period
  WT-HT1080 to muscle ratio: close to one
[3]; post injection
  time to plateau of fluorescence in hFAP-HT1080 tumor: ~ 10 min
